In ChEMBL document CHEMBL4622856, “Essential Medicinal Chemistry of Essential Medicines” (J Med Chem, 2020):

Test: Lipophilicity, log P of the compound
Type: physicochemical
Details: octanol/water

SMILES | logP
Nc1nc2c(ncn2COCCO)c(=O)[nH]1 [ACYCLOVIR] | 1 to 4
O=c1[nH]cc(F)c(=O)[nH]1 [FLUOROURACIL] | 1 to 4
Clc1ccc(COC(Cn2ccnc2)c2ccc(Cl)cc2Cl)c(Cl)c1 (stereo unspecified) [MICONAZOLE] | > 5
CC1(C)C(C=C(Cl)Cl)C1C(=O)OCc1cccc(Oc2ccccc2)c1 (stereo unspecified) [PERMETHRIN] | > 5
CN(C/C=C/C#CC(C)(C)C)Cc1cccc2ccccc12 [TERBINAFINE] | > 5
NC(N)=O [UREA] | 1 to 4
